Source: US20110165565A1, “COMPOSITIONS AND METHODS FOR POLYNUCLEOTIDE EXTRACTION AND METHYLATION DETECTION” (THE JOHNS HOPKINS UNIVERSITY, priority 2008, published 2011)

Tested on: p16 promoter methylation in colorectal cancer cell line RKO
Experiment: MS-qFRET quantification of p16 methylation reversal in RKO cells treated with DAC
Format: cell-based
Excerpt: The quantitative ability of MS-qFRET was further tested in cell lines and in patient samples as a function of response to a DNA demethylating agent. Reversal of methylation in the colorectal cancer cell line, RKO, was quantified at specific time points after treatment with 5-aza-2′-deoxycytidine (DAC). […] Since DNA replication is necessary for incorporation of DAC into DNA, reversal of methylation may be best observed only after inhibition of DNA methyltransferases due to cell cycling. The low amount of methylation reversal in the initial 24 to 36 hours could be attributed to the 22 hour doubling time for RKO cells.
(ID and IA corresponding to donor and acceptor intensity).

Nc1ncn([C@H]2C[C@H](O)[C@@H](CO)O2)c(=O)n1 [5-aza-2′-deoxycytidine (DAC), 5-aza-2′-deoxycytidine]
q-score, level of p16 methylation post-treatment (DNA from RKO cells treated with DAC for different time points (FIG. 3C)): drop in the level of methylation
time of maximal reversal of methylation at p16 (RKO cells, 1 μM DAC, post-treatment): 60 h
